Test results as given in BindingDB's records for doi:10.1016/j.bmcl.2003.09.074 (Eli Lilly, 2003).
*1 amine or outer side, *2 acyl side, *3 side chain or, on linkers, in order; H or OH if unused. Where a SMILES comes first, the peptide text is derived from it. [ ]: non-standard residue; d: D form. The star is where a group is joined. Pro(3S,4R-(CH2)3) = O=C(O)[C@H]1NC[C@@H]2CCC[C@@H]21; Pyrazinecarbonyl = O=C(c1cnccn1)*; X1 = CCCC(N[*:1])C(=O)C(=O)[*:2]

Assays:
[1] = Cytotoxic activity against Protease in […] Huh-7 cells
[2] = Binding affinity towards Protease using PNA assay in rats
[3] = Cytotoxic activity against Protease in […] Huh-7 cells at 100 uM concentration
[4] = Cytotoxic activity against Protease in […] Huh-7 cells; remark: listed apart in the source

| Ki [2] | SMILES | IC50 [1] | IC50 [3] | IC50 [4] |
| --- | --- | --- | --- | --- |
| 370 nM | CCCC(NC(=O)[C@@H]1[C@H]2CCC(F)(F)[C@H]2CN1C(=O)[C@@H](NC(=O)[C@@H](NC(=O)c1cnccn1)C(C)C)C(C)C)C(=O)C(=O)NC1CC1 (stereo partly drawn) [(1S,5S,6R)-4,4-Difluoro-2-((S)-3-methyl-2-{(S)-3-methyl-2-[(pyrazine-2-carbonyl)-amino]-butyrylamino}-butyryl)-octahydro-cyclopenta[c]pyrrole-1-carboxylic acid (1-cyclopropylaminooxalyl-butyl)-amide] | > 100000 nM |  |  |
| 415 nM | CCCC(NC(=O)[C@@H]1[C@H]2CC[C@@H](OCOC)C2CN1C(=O)[C@@H](NC(=O)[C@@H](NC(=O)c1cnccn1)C(C)C)C(C)C)C(=O)C(=O)NC1CC1 (stereo partly drawn) [(1S,5S)-4-Methoxymethoxy-2-((S)-3-methyl-2-{(S)-3-methyl-2-[(pyrazine-2-carbonyl)-amino]-butyrylamino}-butyryl)-octahydro-cyclopenta[c]pyrrole-1-carboxylic acid ((R)-1-cyclopropylaminooxalyl-butyl)-amide] | > 100000 nM |  |  |
| 315 nM | CCCC(NC(=O)[C@@H]1[C@H]2CC[C@H](F)[C@H]2CN1C(=O)[C@@H](NC(=O)[C@@H](NC(=O)c1cnccn1)C(C)C)C(C)C)C(=O)C(=O)N[C@@H](C)c1ccccc1 (stereo partly drawn) [(1S,5S,6R)-4-Fluoro-2-((S)-3-methyl-2-{(S)-3-methyl-2-[(pyrazine-2-carbonyl)-amino]-butyrylamino}-butyryl)-octahydro-cyclopenta[c]pyrrole-1-carboxylic acid [(S)-1-((S)-1-phenyl-ethylaminooxalyl)-butyl]-amide] |  |  |  |
| 510 nM | CCCC(NC(=O)C1[C@H]2CCC(=O)[C@H]2CN1C(=O)[C@@H](NC(=O)[C@@H](NC(=O)c1cnccn1)C(C)C)C(C)C)C(=O)C(=O)NC1CC1 (stereo partly drawn) [(5S,6R)-2-((S)-3-Methyl-2-{(S)-3-methyl-2-[(pyrazine-2-carbonyl)-amino]-butyrylamino}-butyryl)-4-oxo-octahydro-cyclopenta[c]pyrrole-1-carboxylic acid (1-cyclopropylaminooxalyl-butyl)-amide] | > 100000 nM |  |  |
| 82 nM | CCCC(NC(=O)[C@@H]1[C@H]2CC[C@H](F)[C@H]2CN1C(=O)[C@@H](NC(=O)[C@@H](NC(=O)c1cnccn1)C(C)C)C(C)C)C(=O)C(=O)N[C@@H](Cc1ccccc1)C(=O)O (stereo partly drawn) [(S)-2-((S)-3-{[(1S,5S,6R)-4-Fluoro-2-((S)-3-methyl-2-{(S)-3-methyl-2-[(pyrazine-2-carbonyl)-amino]-butyrylamino}-butyryl)-octahydro-cyclopenta[c]pyrrole-1-carbonyl]-amino}-2-oxo-hexanoylamino)-3-phenyl-propionic acid] |  |  | > 100000 nM |
| 90 nM | CCCC(NC(=O)[C@@H]1[C@H]2CC=C[C@H]2CN1C(=O)[C@@H](NC(=O)[C@@H](NC(=O)c1cnccn1)C(C)C)C(C)C)C(=O)C(=O)NC1CC1 (stereo partly drawn) [(1S,5S,6R)-2-((S)-3-Methyl-2-{(S)-3-methyl-2-[(pyrazine-2-carbonyl)-amino]-butyrylamino}-butyryl)-1,2,3,3a,6,6a-hexahydro-cyclopenta[c]pyrrole-1-carboxylic acid (1-cyclopropylaminooxalyl-butyl)-amide] | > 100000 nM |  |  |
| 300 nM | CCCC(NC(=O)[C@@H]1[C@H]2CC[C@H](F)[C@H]2CN1C(=O)[C@@H](NC(=O)[C@@H](NC(=O)c1cnccn1)C(C)C)C(C)C)C(=O)C(=O)NC1CC1 (stereo partly drawn) [(1S,5S,6R)-4-Fluoro-2-((S)-3-methyl-2-{(S)-3-methyl-2-[(pyrazine-2-carbonyl)-amino]-butyrylamino}-butyryl)-octahydro-cyclopenta[c]pyrrole-1-carboxylic acid ((S)-1-cyclopropylaminooxalyl-butyl)-amide] | > 100000 nM |  |  |

Second part, the compound before the results:

| SMILES | Ki [2] | IC50 [1] | IC50 [3] | IC50 [4] |
| --- | --- | --- | --- | --- |
| CCCC(NC(=O)[C@@H]1[C@H]2CC[C@@H](OCOC)C2CN1C(=O)[C@@H](NC(=O)[C@@H](NC(=O)c1cnccn1)C(C)C)C(C)C)C(=O)C(=O)N[C@@H](C)c1ccccc1 (stereo partly drawn) [(1S,5S)-4-Methoxymethoxy-2-((S)-3-methyl-2-{(S)-3-methyl-2-[(pyrazine-2-carbonyl)-amino]-butyrylamino}-butyryl)-octahydro-cyclopenta[c]pyrrole-1-carboxylic acid [(R)-1-((S)-1-phenyl-ethylaminooxalyl)-butyl]-amide] | 332 nM |  | 33000 nM |  |
| CCCC(NC(=O)C1[C@H]2CCC(=O)[C@H]2CN1C(=O)[C@@H](NC(=O)[C@@H](NC(=O)c1cnccn1)C(C)C)C(C)C)C(=O)C(=O)Nc1ccccc1 (stereo partly drawn) [(3aR,5S)-2-((S)-3-Methyl-2-{(S)-3-methyl-2-[(pyrazine-2-carbonyl)-amino]-butyrylamino}-butyryl)-4-oxo-octahydro-cyclopenta[c]pyrrole-1-carboxylic acid (1-phenylaminooxalyl-butyl)-amide] | 17 nM | > 100000 nM |  |  |
| CCCC(NC(=O)[C@@H]1[C@H]2CC=C[C@H]2CN1C(=O)[C@@H](NC(=O)[C@@H](NC(=O)c1cnccn1)C(C)C)C(C)C)C(=O)C(=O)N[C@@H](C)c1ccccc1 (stereo partly drawn) [(1S,5S,6R)-2-((S)-3-Methyl-2-{(S)-3-methyl-2-[(pyrazine-2-carbonyl)-amino]-butyrylamino}-butyryl)-1,2,3,3a,6,6a-hexahydro-cyclopenta[c]pyrrole-1-carboxylic acid [1-((S)-1-phenyl-ethylaminooxalyl)-butyl]-amide] | 880 nM |  |  |  |
| CCCC(NC(=O)[C@@H]1[C@H]2CCC(F)(F)[C@H]2CN1C(=O)[C@@H](NC(=O)[C@@H](NC(=O)c1cnccn1)C(C)C)C(C)C)C(=O)C(=O)N[C@@H](Cc1ccccc1)C(=O)O (stereo partly drawn) [(S)-2-(3-{[(1S,5S,6R)-4,4-Difluoro-2-((S)-3-methyl-2-{(S)-3-methyl-2-[(pyrazine-2-carbonyl)-amino]-butyrylamino}-butyryl)-octahydro-cyclopenta[c]pyrrole-1-carbonyl]-amino}-2-oxo-hexanoylamino)-3-phenyl-propionic acid] | 176 nM |  |  | > 100000 nM |
| CCCC(NC(=O)[C@@H]1[C@H]2CC=C[C@H]2CN1C(=O)[C@@H](NC(=O)[C@@H](NC(=O)c1cnccn1)C(C)C)C(C)C)C(=O)C(=O)N[C@@H](C)CC (stereo partly drawn) [(1S,5S,6R)-2-((S)-3-Methyl-2-{(S)-3-methyl-2-[(pyrazine-2-carbonyl)-amino]-butyrylamino}-butyryl)-1,2,3,3a,6,6a-hexahydro-cyclopenta[c]pyrrole-1-carboxylic acid [1-((S)-sec-butylaminooxalyl)-butyl]-amide] | 625 nM |  |  |  |
| CCCC(NC(=O)[C@@H]1[C@H]2CCC[C@H]2CN1C(=O)[C@@H](NC(=O)[C@@H](NC(=O)c1cnccn1)C(C)C)C(C)C)C(=O)C(=O)N[C@@H](Cc1ccccc1)C(=O)O (stereo partly drawn) [2-(3-{[(1S,5S,6R)-2-((S)-3-Methyl-2-{(S)-3-methyl-2-[(pyrazine-2-carbonyl)-amino]-butyrylamino}-butyryl)-octahydro-cyclopenta[c]pyrrole-1-carbonyl]-amino}-2-oxo-hexanoylamino)-3-phenyl-propionic acid] (Pyrazinecarbonyl-VV[Pro(3S,4R-(CH2)3)][X1]F-OH) | 68 nM | > 100000 nM |  |  |
